Tests used:
[1] = tested on: cell cycle regulation and DNA damage repair; conditions: transcriptomics approach; ref Abdelfatah et al. [2022]; cited from earlier work
[2] = tested on: HeLa H2B-GFP cells co-cultured with HepG2 cells; experiment: Micronucleus assay in co-culture after pretreatment with inhibitors of metabolic enzymes and efflux transporters; conditions: then Las 10 µM, Rid 100 µM, vs no pretreatment
Procedure: Since the analysis was limited to HeLa H2B-GFP cells in these experiments, cytochalasin B (at final concentration 3 µg/ml) exposure was 20 h.
Transmembrane transporters may enhance or decrease PA-mediated effects. […] The idea was that metabolites formed in hepatocytes may not reach HeLa H2B-GFP cells to the same extent. […] Then, the co-culture was exposed to PAs for 28 h, followed by 3 µg/ml cytochalasin B for 20 h.

MRP2 efflux transporter = biological target: T1, MRP2 efflux transporter (Homo sapiens, UniProt Q92887); experiment: MRP2 efflux transporter activity, intracellular calcein fluorescence retention; type: cell-based; conditions: HepG2 cells; calcein substrate; benzbromarone 10 µM; data not shown
T1 construct: endogenous in cells; host or cells: HepG2
T1 sequence (Q92887 whole entry): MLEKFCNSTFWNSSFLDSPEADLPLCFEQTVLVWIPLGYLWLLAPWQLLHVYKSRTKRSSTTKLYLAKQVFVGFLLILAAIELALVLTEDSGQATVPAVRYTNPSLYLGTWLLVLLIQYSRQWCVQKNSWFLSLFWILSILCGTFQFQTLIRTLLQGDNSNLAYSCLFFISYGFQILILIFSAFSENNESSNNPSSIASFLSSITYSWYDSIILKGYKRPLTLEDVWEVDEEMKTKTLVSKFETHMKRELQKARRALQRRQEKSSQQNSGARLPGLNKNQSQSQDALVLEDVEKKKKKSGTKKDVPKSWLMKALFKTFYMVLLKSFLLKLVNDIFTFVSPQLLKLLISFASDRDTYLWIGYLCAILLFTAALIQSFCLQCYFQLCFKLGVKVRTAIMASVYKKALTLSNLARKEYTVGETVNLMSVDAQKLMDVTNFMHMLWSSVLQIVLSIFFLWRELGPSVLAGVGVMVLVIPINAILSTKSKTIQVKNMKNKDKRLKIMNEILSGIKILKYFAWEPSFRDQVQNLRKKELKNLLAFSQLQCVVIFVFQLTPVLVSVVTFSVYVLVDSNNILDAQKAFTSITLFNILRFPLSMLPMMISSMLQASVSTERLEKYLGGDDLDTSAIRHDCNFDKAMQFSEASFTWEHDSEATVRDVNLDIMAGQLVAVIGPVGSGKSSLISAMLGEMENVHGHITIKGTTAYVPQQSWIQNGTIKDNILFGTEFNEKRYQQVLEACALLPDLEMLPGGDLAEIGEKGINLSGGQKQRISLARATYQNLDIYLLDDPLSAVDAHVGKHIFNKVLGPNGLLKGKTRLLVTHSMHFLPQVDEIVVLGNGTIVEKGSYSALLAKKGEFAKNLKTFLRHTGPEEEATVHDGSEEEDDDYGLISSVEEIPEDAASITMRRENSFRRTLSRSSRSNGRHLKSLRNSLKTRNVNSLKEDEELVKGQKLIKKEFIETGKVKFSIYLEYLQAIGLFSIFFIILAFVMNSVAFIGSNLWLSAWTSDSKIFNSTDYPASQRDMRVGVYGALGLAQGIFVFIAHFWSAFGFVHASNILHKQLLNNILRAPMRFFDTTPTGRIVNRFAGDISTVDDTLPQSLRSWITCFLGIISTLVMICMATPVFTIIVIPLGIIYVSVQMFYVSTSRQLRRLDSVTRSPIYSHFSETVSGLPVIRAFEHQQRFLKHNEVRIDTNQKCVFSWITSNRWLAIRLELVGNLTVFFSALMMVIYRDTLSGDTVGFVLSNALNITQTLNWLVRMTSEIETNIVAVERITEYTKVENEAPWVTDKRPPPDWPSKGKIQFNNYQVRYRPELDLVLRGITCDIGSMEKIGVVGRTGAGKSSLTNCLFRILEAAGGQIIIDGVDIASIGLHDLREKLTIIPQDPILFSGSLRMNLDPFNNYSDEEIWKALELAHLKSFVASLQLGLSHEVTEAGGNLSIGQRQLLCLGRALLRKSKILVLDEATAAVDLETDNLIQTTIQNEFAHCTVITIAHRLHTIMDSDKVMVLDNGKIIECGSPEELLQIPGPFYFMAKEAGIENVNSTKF

HSEC = conditions: PAs metabolized by HepaRG human hepatocyte cells in Transwell co-culture; ref Lu et al. [2019]; cited from earlier work
[3] = tested on: HeLa H2B-GFP cells co-cultured with HepG2 cells; experiment: Cytokinesis-block micronucleus (CBMN) assay, HeLa H2B-GFP cells scored in co-culture with HepG2; type: cell-based, human; conditions: lasiocarpine 10 µM, riddelliine 100 µM, europine 320 µM; 28 h; vs solvent control (DMSO); n = 3
Procedure: (§1) The study of genomic damage was performed in a six-well plate in which one well consisted of only HepG2 cells, one well of only HeLa H2B-GFP cells and further wells containing both cell types in co-culture. To achieve this, 190, 000 of HeLa H2B-GFP cells per 3ml, 150,000 of HepG2 cells per 3ml and 40,000 HeLa H2B-GFP plus 150,000 HepG2 for the co-culture per 3ml were seeded and incubated overnight. As culture medium, the HepG2 cell medium was used for all cells. […] At this point, slides were coded and for each test sample micronuclei were scored in 1000 binucleated HeLa H2B-GFP cells in the co-culture and HeLa H2B-GFP cells, and in 1000 binucleated HepG2 cells in the HepG2 cell culture, at 400-fold magnification with an Eclipse 55i fluorescence microscope using a fluorescein isothiocyanate (FITC) filter (Nikon GmbH, Japan). The numbers of mononucleated cells (MN), binucleated cells (BN), trinucleated cells (TriN), and tetranucleated cells (TetraN) in 1000 cells were also scored. The cytokinesis-block proliferation index (CBPI) was calculated from that as a criterion for determining the cytotoxic effect using the following formula: CBPI=1×MN+2×BN+3×TriN+4×TetraN/MN+BN+TriN+TetraN.

HeLa H2B-GFP cells [4] = experiment: Cytokinesis-block micronucleus (CBMN) assay, HeLa H2B-GFP cells cultured alone; type: cell-based, human; conditions: lasiocarpine 10 µM, riddelliine 100 µM, europine 320 µM; 28 h; vs solvent control (DMSO); n = 3
Procedure: as §1

HepG2 cells [5] = experiment: Cytokinesis-block micronucleus (CBMN) assay, HepG2 cells cultured alone; type: cell-based, human; conditions: lasiocarpine 10 µM, riddelliine 100 µM, europine 320 µM; 28 h; vs solvent control (DMSO); n = 3
Procedure: as §1

[6] = tested on: HeLa H2B-GFP cells co-cultured with HepG2 cells; experiment: Analysis of mitotic figures, HeLa H2B-GFP cells of the co-culture; type: cell-based, human; conditions: for mitotic index in co-culture / arrest in metaphase of mitosis (detectable as elevated mitotic index): 28 h, Las 10 µM, Rid 100 µM, Ep 160 µM; for mitotic index in co-culture: vs DMSO solvent control; for arrest in metaphase of mitosis (detectable as elevated mitotic index): vincristine 10 ng/ml (positive control)
Procedure: (§2) The characterization of mitotic cells in fixed cell preparations was performed as described in Baudoin and Cimini [(2018]). […] Thereafter, cells were harvested and the microscopic slides prepared as described for micronucleus analysis. The mitotic index (MI; % cells in mitosis) was assessed by counting and adding up the number of cells in the mitotic stages prophase, metaphase, anaphase and telophase in 1000 cells.
(§3) Disturbed mitoses were defined as mitotic figures deviating from the typical appearance of mitoses and were assessed in 300 mitotic cells per slide. We classified the mitotic disturbances into the following categories (Figs. 2, 3):
(§4) Metaphase: no metaphase plate arrangement, non-congression of individual chromosomes to the metaphase plate, multipolar (tripolar and more than tripolar) arrangement of chromosomes and elongated chromosomes/chromatids.
(§5) Anaphase: bridges, lagging chromosome(s), combination of bridges and lagging chromosome, and multipolar (tripolar and more than tripolar) arrangement of chromosomes.
(§6) Telophase: same analysis as for anaphase cells.
(§7) If a cell harboured more than one type of disturbance, it was added to each category (e.g. multipolar, lagging chromosome(s) and bridges).

HepG2 cells [7] = experiment: Analysis of mitotic figures, HepG2 cells cultured alone; type: cell-based, human; conditions: 28 h; Las 10 µM, Rid 100 µM, Ep 160 µM; vs DMSO solvent control
Procedure: as §2, §3, §4, §5, §6, §7

HeLa H2B-GFP cells [8] = experiment: Analysis of mitotic figures, HeLa H2B-GFP cells cultured alone; type: cell-based, human; conditions: 28 h; Las 10 µM, Rid 100 µM, Ep 160 µM; vs DMSO solvent control
Procedure: as §2, §3, §4, §5, §6, §7

DNA [9] = tested on: DNA; parameters: method as in Hadi et al. [2021]; conditions: ref Hadi et al. [2021]; cited from earlier work
V79 hamster cells = conditions: metabolically incompetent V79 cells with or without human CYP450-3A4; ref Ebmeyer et al. [(2019]); cited from earlier work
DNA [10] = tested on: DNA; parameters: method as in Hincks et al. [1991]; conditions: ref Hincks et al. [1991]; cited from earlier work

In the case of CC(C)[C@](O)(C(=O)OCC1=CCN2CC[C@@H](O)[C@@H]12)[C@@H](C)O (stereo in doubt) [lycopsamine], the “interference with cell cycle regulation and DNA damage repair” value (from here on “interference”) [1] is given as “interfered with cell cycle regulation and DNA damage repair”.
For CCc1oc2ccccc2c1C(=O)c1cc(Br)c(O)c(Br)c1 [benzbromarone], the “lasiocarpine-, riddelliine- and europine-induced micronucleus formation in HeLa H2B-GFP cells after efflux transporter inhibitor pretreatment” value ([2]; verapamil 50 µM, benzbromarone 10 µM or both, 24 h pretreatment, Ep 160 µM for 28 h) was “significantly reduced” and the “activity of MRP2 efflux transporter (calcein fluorescence retention)” value (MRP2 efflux transporter) was “significantly reduced”.
For C=C/C1=C/[C@H](C)[C@](C)(OC(C)=O)C(=O)OC/C2=C/CN(C)CC[C@@H](OC1=O)C2=O [clivorine], the “cytotoxicity in HSEC” value (HSEC) is listed as “concentration-dependent cytotoxicity”.
For C/C=C(/C)C(=O)O[C@@H]1CCN2CC=C(COC(=O)[C@@](O)([C@H](C)O)C(C)(C)O)[C@H]12 [echimidine], the “interference” value [1] is listed as “interfered with cell cycle regulation and DNA damage repair”.
In the case of COC(C)C(O)(C(=O)OCC1=CCN2CCC(O)C12)C(C)(C)O (centres unmarked) [europine], the “micronucleus formation in HeLa H2B-GFP cells in the co-culture” value [3] is reported as “induced micronucleus formation significantly”, the “micronucleus formation in HeLa H2B-GFP cells cultured alone” value (HeLa H2B-GFP cells [4]) is reported as “not if cultured alone” and the “micronucleus induction in HepG2 cells cultured alone” value (HepG2 cells [5]) is reported as “induced micronuclei”. For the same compound, the “mitotic index in co-culture” value [6] was “significantly decreased”, the ana-/telophase bridges ([6]; in 300 mitotic cells, Ep 160 µM compared with Las 10 µM and Rid 100 µM, concentrations causing a similar number of micronuclei) was “less ana-/telophase bridges than the two diesters” and the “arrest in metaphase of mitosis (detectable as elevated mitotic index)” value (shortened to “arrest … (detectable as elevated mitotic index)”) [6] was “not”. For the same compound, the “mitotic index in HepG2 cells” value (HepG2 cells [7]) was “significantly decreased”, the “mitotic index in HeLa H2B-GFP cells cultured alone” value (HeLa H2B-GFP cells [8]) was “no change” and the “induction of DNA cross-links” value (DNA [9]) was “did not”.
In the case of CC(=O)N1CCN(c2ccc(OCC3COC(Cn4ccnc4)(c4ccc(Cl)cc4Cl)O3)cc2)CC1 (centres unmarked) [ketoconazole], the “lasiocarpine-, riddelliine- and europine-induced micronucleus formation after CYP450-3A4 inhibitor pretreatment” value ([2]; ketoconazole 1 µM 24 h pretreatment, Ep 320 µM for 28 h) is reported as “significantly reduced”.
For C/C=C(/C)C(=O)O[C@H]1CCN2CC=C(COC(=O)[C@@](O)([C@H](C)OC)C(C)(C)O)[C@H]12 [lasiocarpine], the “interference” value [1] is listed as “interfered with cell cycle regulation and DNA damage repair” and the “genotoxicity in V79 hamster cells” value (V79 hamster cells) is listed as “only genotoxic in metabolically incompetent V79 hamster cells if they had been genetically engineered to harbour human CYP450-3A4”.
For C[C@H]1C(=O)O[C@@H]2CCN3CC=C(COC(=O)[C@](C)(O)[C@]1(C)O)[C@H]23 [monocrotaline], the “interference” value [1] is given as “interfered with cell cycle regulation and DNA damage repair” and the “cytotoxicity in HSEC” value (HSEC) is given as “concentration-dependent cytotoxicity”.
In the case of C=C1C/C(=C/C)C(=O)O[C@@H]2CCN3CC=C(COC(=O)[C@@]1(O)CO)[C@H]23 [riddelliine], the “micronucleus formation in HeLa H2B-GFP cells in the co-culture” value [3] is reported as “induced micronucleus formation significantly”, the “micronucleus formation in HeLa H2B-GFP cells cultured alone” value (HeLa H2B-GFP cells [4]) is reported as “not if cultured alone” and the “micronucleus induction in HepG2 cells cultured alone” value (HepG2 cells [5]) is reported as “induced micronuclei”. The “mitotic index in co-culture” value [6] was “did not cause significant alterations”, the “arrest … (detectable as elevated mitotic index)” value [6] was “not” and the “mitotic index in HepG2 cells” value (HepG2 cells [7]) was “did not cause significant alterations”. The “mitotic index in HeLa H2B-GFP cells cultured alone” value (HeLa H2B-GFP cells [8]) was “did not cause significant alterations”, the DNA cross-linker potency (DNA [10]) was “more potent DNA cross-linker than heliosupine” and the “interference” value [1] was “interfered with cell cycle regulation and DNA damage repair”.
In the case of CC[C@]1(O)C[C@H]2CN(CCc3c([nH]c4ccccc34)[C@@](C(=O)OC)(c3cc4c(cc3OC)N(C=O)[C@H]3[C@@](O)(C(=O)OC)[C@H](OC(C)=O)[C@]5(CC)C=CCN6CC[C@]43[C@@H]65)C2)C1 [vincristine, reference compound], the “arrest … (detectable as elevated mitotic index)” value [6] is reported as “arrest in metaphase of mitosis”.

Reference: PMC9816206 (Archives of Toxicology, 2022)
